Results published in PubChem BioAssay (NCI).
Where “and” joins values, the source holds several entries; their conditions need not be identical. Identical values can stand only once.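 Five compound concentrations were applied to cells in 96-well plates for 48 hours; endpoints were derived by simple linear interpolation of the resulting dose-response curve. Here, GI50 denotes the concentration required for 50% inhibition of growth. At the TGI there is no net growth.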

What was measured:
Experiment in all cases: NCI anticancer screen, dose series, 48 h
[1] = test system: ACHN renal
[2] = test system: BT-549 breast
[3] = test system: HT29 colon
[4] = test system: KM12 colon
[5] = test system: MCF7 breast
[6] = test system: SF-268 CNS
[7] = test system: SF-539 CNS
[8] = test system: SW-620 colon

SMILES	GI50 [1]	TGI [1]	GI50 [2]	TGI [2]	GI50 [3]	TGI [3]	GI50 [4]	TGI [4]	GI50 [5]	TGI [5]	GI50 [6]	TGI [6]	GI50 [7]	TGI [7]	GI50 [8]	TGI [8]
FC(F)(c1ccc2ncccc2c1)c1nnc2ccc(-c3ccncc3)nn12	50.2 µM	> 100 µM	53.7 µM	> 100 µM	> 100 µM	> 100 µM	69.7 µM	> 100 µM	95.3 µM	> 100 µM	66.5 µM	> 100 µM	46.4 µM	> 100 µM	> 100 µM	> 100 µM
CS(=O)(=O)CCNCc1cc(-c2cc3c(Nc4ccc(OCc5cccc(F)c5)c(Cl)c4)ncnc3s2)cs1	7.35 µM	> 25 µM	17.2 µM	> 25 µM	5.41 µM	13.1 µM	6.55 µM	> 25 µM	10.8 µM	> 25 µM	11.3 µM	> 25 µM	9.92 µM	> 25 µM	15 µM	> 25 µM
CCC(O)c1ccc(Br)cc1NC(=O)c1cccc(Cl)c1 (stereo not drawn)	23.1 µM	> 100 µM	23.7 µM	74.3 µM	17.9 µM	37.2 µM	13 µM	29.6 µM	12 µM	96 µM	26.2 µM	93.2 µM	31.8 µM	> 100 µM	26.6 µM	99.6 µM
COc1cc2nc(SCc3cc(OC)c(OC)c(OC)c3)n(Cc3ccccc3)c(=O)c2cc1OC	4.83 µM	24.1 µM	3.32 µM	20.7 µM	2.76 µM	> 100 µM	2.55 µM	> 100 µM	0.742 µM	> 100 µM	5.28 µM	47.4 µM	2.81 µM	16.2 µM	2.5 µM	> 100 µM
CC(C)c1c(-c2ccccc2)nc2c(C#N)c[nH]n2c1=O	30.6 µM	> 90.9 µM	26.2 µM	> 95.5 µM	33.9 µM	> 100 µM	31.7 µM	> 100 µM	26.2 µM	> 91.5 µM	28.8 µM	> 100 µM	29.4 µM	> 100 µM	35.3 µM	> 100 µM
CC(=O)Oc1ccc(C23c4ccccc4C2(OC(C)=O)c2cc(OC(C)=O)ccc23)cc1 (stereo not drawn)	1.94 µM	5.4 µM	2.76 µM	6.49 µM	39.7 µM	> 100 µM	3.34 µM	11.2 µM	16.6 µM	> 100 µM	5.54 µM	22 µM	6.48 µM	28.6 µM	3.73 µM	12.7 µM
Cn1c(C(=O)c2ccncc2)cc2ccccc21	> 100 µM	> 100 µM	> 100 µM	> 100 µM	92.8 µM	> 100 µM	75.5 µM	> 100 µM	> 100 µM	> 100 µM	96.7 µM	> 100 µM	87.5 µM	> 100 µM	52.8 µM	> 100 µM
C[C@@H]1C[C@H](C)CN(S(=O)(=O)c2ccc3c(NO)c4ccc(S(=O)(=O)N5C[C@H](C)C[C@H](C)C5)cc4c(N=O)c3c2)C1	0.143 µM	0.293 µM	0.175 µM	0.34 µM	0.159 µM	0.313 µM	0.0833 µM	0.257 µM	0.176 µM	0.357 µM	0.0252 µM	0.0698 µM	0.0564 µM	0.207 µM	0.0298 µM	0.104 µM
CC1CCC2(NC1)OC1CC3C4CC=C5CC(O)CCC5(C)C4CCC3(C)C1C2C (stereo not drawn)	29.8 µM and 11.1 µM	91.7 µM and 30 µM		> 100 µM		> 100 µM	14 µM and 6.75 µM	47.4 µM and 64.4 µM		> 100 µM	39.8 µM and 16.1 µM	> 100 µM		40.1 µM and 29.4 µM		> 100 µM
O=S(=O)(NCCNc1nccc(-c2c(-c3ccc(F)c(O)c3)nc3sccn23)n1)c1ccc(F)cc1	2.58 µM	28.5 µM	2.99 µM	23.4 µM	4.19 µM	31.1 µM	2.89 µM	14.6 µM	2.17 µM	12.2 µM	4.71 µM	> 100 µM	4.54 µM	25.3 µM	5.22 µM	30.4 µM
COc1cc2ncn(-c3cc(OCc4ccccc4C(F)(F)F)c(C(=O)N(C)C)s3)c2cc1OC	> 25 µM	> 25 µM	> 21.9 µM	> 25 µM	> 25 µM	> 25 µM	> 25 µM	> 25 µM	> 25 µM	> 25 µM	> 25 µM	> 25 µM	> 25 µM	> 25 µM	> 25 µM	> 25 µM
CC(=O)c1ccc2c(c1)C1C=CCC1[C@H](c1cc3c(cc1Br)OCO3)N2 (stereo partly drawn)	1.63 µM	22.1 µM	0.716 µM	13.8 µM	0.653 µM	13 µM	0.581 µM	11.3 µM	0.368 µM	18.9 µM	0.67 µM	19.1 µM	0.893 µM	2.37 µM	0.448 µM	> 29.2 µM
O=C(NOC[C@H](O)CO)c1ccc(F)c(F)c1Nc1ccc(I)cc1F		> 100 µM	10.8 µM and > 10 µM	> 31.4 µM	< 0.01 µM and 0.00291 µM	> 100 µM	0.0456 µM and 0.036 µM	> 100 µM	> 76.5 µM	> 100 µM	25.6 µM and > 2.28 µM	> 100 µM	15.8 µM and > 10 µM	> 100 µM	< 0.01 µM and 0.00315 µM	> 100 µM
COc1cc(F)c(F)c(Nc2ccc(I)cc2F)c1NS(=O)(=O)C1(C[C@H](O)CO)CC1	0.897 µM	> 10 µM	> 5.26 µM	> 10 µM	0.0308 µM	> 10 µM	0.371 µM	> 10 µM	> 5.31 µM	> 10 µM	5.72 µM	> 10 µM	> 6.57 µM	> 10 µM	0.0591 µM	> 10 µM
